Source: patent US9376418B2, “Substituted pyridine spleen tyrosine kinase (SYK) inhibitors” (Merck Sharp & Dohme Corp., priority 2012, dated 2016)

Molecular target: T1, recombinant human GST-SYK (Homo sapiens, UniProt P43405)
T1 construct: purchased Carna Biosciences 08-176
Test: Homogeneous Time-Resolved Fluorescence (HTRF) assay for the recombinant human Syk enzyme
Assay type: biochemical
Conditions: HTRF assay, recombinant human GST-SYK; IC50 given as class symbols; read-out: rhSYK Activity
How it was run: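 Enzyme […], pH 7.5 Tris/tween/DTT buffer; 10 min preincubation with compound, RT. Start: 250 nM biotin-peptide, 25 μM ATP, 5 mM Mg; 45′ RT. Stop/detect: 40 mM EDTA, Eu-anti-pTyr, SA-APC; read 30 min later.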

Row | IC50 | SMILES
1 | < 100 nM | CCC[C@@H](Nc1ccc(-c2cc(C)cc(Nc3nccc(C(F)(F)F)n3)c2)cn1)C(=O)O [Example 7.107, N-[5-(3-methyl-5-{[4-(trifluoromethyl)pyrimidin-2-yl]amino}phenyl)pyridin-2-yl]-D-norvaline]
2 | < 100 nM | Cc1cc(Nc2nccc(C(F)(F)F)n2)cc(-c2ccc(N[C@H](CO)C(=O)O)nc2)c1 [Example 7.108, N-[5-(3-methyl-5-{[4-(trifluoromethyl)pyrimidin-2-yl]amino}phenyl)pyridin-2-yl]-D-serine]
3 | < 100 nM | Cc1cc(Nc2nccc(C(F)(F)F)n2)cc(-c2ccc(N[C@@H](CO)C(=O)O)nc2)c1 [Example 7.109, N-[5-(3-methyl-5-{[4-(trifluoromethyl)pyrimidin-2-yl]amino}phenyl)pyridin-2-yl]-L-serine]
4 | < 100 nM | Cc1cc(Nc2nccc(C(F)(F)F)n2)cc(-c2ccc(N[C@@H](CC(C)C)C(=O)O)nc2)c1 [Example 7.111, N-[5-(3-methyl-5-{[4-(trifluoromethyl)pyrimidin-2-yl]amino}phenyl)pyridin-2-yl]-L-leucine]
5 | < 100 nM | Cc1cc(Nc2nccc(C(F)(F)F)n2)cc(-c2ccc(NCCCO)nc2)c1 [Example 7.113, 3-{[5-(3-methyl-5-{[4-(trifluoromethyl)pyrimidin-2-yl]amino}phenyl)pyridin-2-yl]amino}propan-1-ol]
6 | < 100 nM | Cc1cc(Nc2nccc(C(F)(F)F)n2)cc(-c2ccc(NC(C)(C)C#N)nc2)c1 [Example 7.114, 2-methyl-2-{[5-(3-methyl-5-{[4-(trifluoromethyl)pyrimidin-2-yl]amino}phenyl)pyridin-2-yl]amino}propanenitrile]
7 | 100 to 1000 nM | Cc1cc(Nc2nccc(C(F)(F)F)n2)cc(-c2ccc(NC(C)(C#N)C(C)(C)C)nc2)c1 (stereo not drawn) [Example 7.115, 2,3,3-trimethyl-2-{[5-(3-methyl-5-{[4-(trifluoromethyl)pyrimidin-2-yl]amino}phenyl)pyridin-2-yl]amino}butanenitrile]
8 | 100 to 1000 nM | Cc1cc(Nc2nccc(C(F)(F)F)n2)cc(-c2ccc(NC(C)(C#N)CC(F)(F)F)nc2)c1 (stereo not drawn) [Example 7.117, 4,4,4-trifluoro-2-methyl-2-{[5-(3-methyl-5-{[4-(trifluoromethyl)pyrimidin-2-yl]amino}phenyl)pyridin-2-yl]amino}butanenitrile]
9 | < 100 nM | CCC(C)(C#N)Nc1ccc(-c2cc(C)cc(Nc3nccc(C(F)(F)F)n3)c2)cn1 (stereo not drawn) [Example 7.118, 2-methyl-2-{[5-(3-methyl-5-{[4-(trifluoromethyl)pyrimidin-2-yl]amino}phenyl)pyridin-2-yl]amino}butanenitrile]
10 | < 100 nM | Cc1cc(Nc2nccc(C(F)(F)F)n2)cc(-c2cnc(NC(C)(C)C(=O)O)c(C(F)(F)F)c2)c1 [Example 7.123, 2-methyl-N-[5-(3-methyl-5-{[4-(trifluoromethyl)pyrimidin-2-yl]amino}phenyl)-3-(trifluoromethyl)pyridin-2-yl]alanine]
11 | < 100 nM | Cc1cc(Nc2nccc(C(F)(F)F)n2)cc(-c2ccc(NC3CNC(=O)C3)nc2)c1 (stereo not drawn) [Example 7.128, 4-{[5-(3-methyl-5-{[4-(trifluoromethyl)pyrimidin-2-yl]amino}phenyl)pyridin-2-yl]amino}pyrrolidin-2-one]
12 | < 100 nM | Cc1cc(Nc2nccc(C(F)(F)F)n2)cc(-c2ccc(NC3(C(=O)O)CC3)nc2)c1 [Example 7.129, 1-{[5-(3-methyl-5-{[4-(trifluoromethyl)pyrimidin-2-yl]amino}phenyl)pyridin-2-yl]amino}cyclopropanecarboxylic acid]
13 | < 100 nM | Cc1cc(Nc2nccc(C(F)(F)F)n2)cc(-c2ccc(NCC(=O)NCC(=O)O)nc2)c1 [Example 7.138, N-[5-(3-methyl-5-{[4-(trifluoromethyl)pyrimidin-2-yl]amino}phenyl)pyridin-2-yl]glycylglycine]

Second part, the compound before the results:

Row | SMILES | IC50
14 | Cc1cc(Nc2nccc(C(F)(F)F)n2)cc(-c2ccc(N3CCC[C@@H]3C(=O)O)nc2)c1 [Example 7.110, 1-[5-(3-methyl-5-{[4-(trifluoromethyl)pyrimidin-2-yl]amino}phenyl)pyridin-2-yl]-D-prolilne] | < 100 nM
15 | Cc1cc(Nc2nccc(C(F)(F)F)n2)cc(-c2ccc(N[C@@H](Cc3c[nH]cn3)C(=O)O)nc2)c1 [Example 7.112, N-[5-(3-methyl-5-{[4-(trifluoromethyl)pyrimidin-2-yl]amino}phenyl)pyridin-2-yl]-L-histidine] | < 100 nM
16 | Cc1cc(Nc2nccc(C(F)(F)F)n2)cc(-c2ccc(N3CCCC4(CCCCO4)C3)nc2)c1 (stereo not drawn) [Example 7.116, N-{3-methyl-5-[6-(1-oxa-8-azaspiro[5.5]undec-8-yl)pyridin-3-yl]phenyl}-4-(trifluoromethyl)pyrimidin-2-amine] | 100 to 1000 nM
17 | Cc1cc(Nc2nccc(C(F)(F)F)n2)cc(-c2ccc(N3CCCC[C@H]3C(=O)O)nc2)c1 [Example 7.120, (2S)-1-[5-(3-methyl-5-{[4-(trifluoromethyl)pyrimidin-2-yl]amino}phenyl)pyridin-2-yl]piperidine-2-carboxylic acid] | < 100 nM
18 | Cc1cc(Nc2nccc(C(F)(F)F)n2)cc(-c2ccc(N3CCC[C@@]3(C)C(=O)O)nc2)c1 [Example 7.121, 2-methyl-1-[5-(3-methyl-5-{[4-(trifluoromethyl)pyrimidin-2-yl]amino}phenyl)pyridin-2-yl]-L-proline] | < 100 nM
19 | O=C1NCCC1Nc1ccc(-c2cccc(Nc3nccc(C(F)(F)F)n3)c2)cn1 (stereo not drawn) [Example 7.124, 3-{[5-(3-{[4-(trifluoromethyl)pyrimidin-2-yl]amino}phenyl)pyridin-2-yl]amino}pyrrolidin-2-one] | < 100 nM
20 | CC(C)(Nc1ccc(-c2cccc(Nc3nccc(C(F)(F)F)n3)c2)cn1)C(=O)O [Example 7.125, 2-methyl-N-[5-(3-{[4-(trifluoromethyl)pyrimidin-2-yl]amino}phenyl)pyridin-2-yl]alanine] | < 100 nM
21 | O=C(O)[C@@H]1CCN1c1ccc(-c2cccc(Nc3nccc(C(F)(F)F)n3)c2)cn1 [Example 7.126, (2S)-1-[5-(3-{[4-(trifluoromethyl)pyrimidin-2-yl]amino}phenyl)pyridin-2-yl]azetidine-2-carboxylic acid] | < 100 nM
22 | O=C(O)[C@@H]1CCN1c1ccc(-c2cc(F)cc(Nc3nccc(C(F)(F)F)n3)c2)cn1 [Example 7.127, (2S)-1-[5-(3-fluoro-5-{[4-(trifluoromethyl)pyrimidin-2-yl]amino}phenyl)pyridin-2-yl]azetidine-2-carboxylic acid] | < 100 nM
23 | Cc1cc(Nc2nccc(C(F)(F)F)n2)cc(-c2ccc(N3CCCCC3CC(=O)O)nc2)c1 (stereo not drawn) [Example 7.132, {1-[5-(3-methyl-5-{[4-(trifluoromethyl)pyrimidin-2-yl]amino}phenyl)pyridin-2-yl]piperidin-2-yl}acetic acid] | < 100 nM
24 | Cc1cc(Nc2nccc(C(F)(F)F)n2)cc(-c2ccc(N3CC(C(=O)O)C3)nc2)c1 [Example 7.133, 1-[5-(3-methyl-5-{[4-(trifluoromethyl)pyrimidin-2-yl]amino}phenyl)pyridin-2-yl]azetidine-3-carboxylic acid] | < 100 nM
25 | Cc1cc(Nc2nccc(C(F)(F)F)n2)cc(-c2ccc(N3CC[C@H](O)[C@H]3C(=O)O)nc2)c1 [Example 7.134, (3S)-3-hydroxy-1-[5-(3-methyl-5-{[4-(trifluoromethyl)pyrimidin-2-yl]amino}phenyl)pyridin-2-yl]-L-proline] | < 100 nM
26 | Cc1cc(Nc2nccc(C(F)(F)F)n2)cc(-c2ccc(N3CCCC(C(=O)O)C3)nc2)c1 (stereo not drawn) [Example 7.135, 1-[5-(3-methyl-5-{[4-(trifluoromethyl)pyrimidin-2-yl]amino}phenyl)pyridin-2-yl]piperidine-3-carboxylic acid] | < 100 nM
27 | Cc1cc(Nc2nccc(C(F)(F)F)n2)cc(-c2ccc(N3CCC(C(=O)O)CC3)nc2)c1 [Example 7.136, 1-[5-(3-methyl-5-{[4-(trifluoromethyl)pyrimidin-2-yl]amino}phenyl)pyridin-2-yl]piperidine-4-carboxylic acid] | < 100 nM
28 | Cc1cc(Nc2nccc(C(F)(F)F)n2)cc(-c2ccc(N3CSCC3C(=O)O)nc2)c1 (stereo not drawn) [Example 7.137, 3-[5-(3-methyl-5-{[4-(trifluoromethyl)pyrimidin-2-yl]amino}phenyl)pyridin-2-yl]-1,3-thiazolidine-4-carboxylic acid] | < 100 nM
29 | Cc1cc(Nc2nccc(C(F)(F)F)n2)cc(-c2ccc(N3CCN(CCCC(=O)O)CC3)nc2)c1 [Example 7.139, 4-{4-[5-(3-methyl-5-{[4-(trifluoromethyl)pyrimidin-2-yl]amino}phenyl)pyridin-2-yl]piperazin-1-yl}butanoic acid] | < 100 nM
30 | Cc1cc(Nc2nccc(C(F)(F)F)n2)cc(-c2ccc(N3CCN(CC(=O)O)CC3)nc2)c1 [Example 7.140, {4-[5-(3-methyl-5-{[4-(trifluoromethyl)pyrimidin-2-yl]amino}phenyl)pyridin-2-yl]piperazin-1-yl}acetic acid] | < 100 nM
31 | Cc1cc(Nc2nccc(C(F)(F)F)n2)cc(-c2ccc(N3CCC(C(=O)N4CCC(C(=O)O)CC4)CC3)nc2)c1 [Example 7.141, 1-({1-[5-(3-methyl-5-{[4-(trifluoromethyl)pyrimidin-2-yl]amino}phenyl)pyridin-2-yl]piperidin-4-yl}carbonyl)piperidine-4-carboxylic acid] | < 100 nM
32 | Cc1cc(Nc2nccc(C(F)(F)F)n2)cc(-c2ccc(N[C@H]3CC[C@@H](C(=O)O)CC3)nc2)c1 [Example 7.142, cis-4-{[5-(3-methyl-5-{[4-(trifluoromethyl)pyrimidin-2-yl]amino}phenyl)pyridin-2-yl]amino}cyclohexanecarboxylic acid] | < 100 nM
33 | Cc1cc(Nc2nccc(C(F)(F)F)n2)cc(-c2ccc(N[C@H]3CC[C@H](C(=O)O)CC3)nc2)c1 [Example 7.143, trans-4-{[5-(3-methyl-5-{[4-(trifluoromethyl)pyrimidin-2-yl]amino}phenyl)pyridin-2-yl]amino}cyclohexanecarboxylic acid] | < 100 nM
